# Reference: patent publication US9629362B1, “Methods for killing insects using methyl benzoate” (The United States of America, as represented by the …, priority 2016, dated 2017)
# “Also recorded” adds a separate entry of the source. Read-outs that look alike come from different tables or passages of the source. Marks after values point to notes of the source that are not given here.
# Key:
# H. halys nymphs = assay: Toxicity of MB against H. halys nymphs (treated filter paper in glass vial); format: in vivo, Halyomorpha halys; conditions: mortality after 24 hr
# Description: Toxicity of MB against H. halys nymphs: The bioassays were carried out in glass vials (20 mL). Filter paper was cut into round shaped pieces (2.4 cm diameter). 50 μL MB acetone solution with different concentrations was loaded onto the filter paper evenly, and the filter paper was dried for 1 min and then put into the bottom of the vial. A small piece of green bean was put on the filter paper in the vial as food source. Different stages of H. halys nymphs were introduced into the vial and capped with a cotton ball. For each stage, 30 nymphs were used for each amount of MB loading. For the nymphs of the first instar, 10 nymphs were put into 1 vial. For the nymphs of the second and third instar, 5 nymphs were put into 1 vial. For the nymphs of the fourth instar, 3 nymphs were put into 1 vial. For the nymphs of the fifth instar, 2 nymphs were put into 1 vial. The mortality was assessed after 24 hr.
# (§1) Data analysis: Comparisons of different treatments were analyzed using one-way ANOVA followed by Ryan-Eibot-Gabriel-Welsch F test (SPSS 10.0 for Windows (George, D., and P. Mallery, SPSS for Windows step by step: A simple guide and reference, 4th edition, Allyn & Bacon, 2002)) for significance at α=0.05.
# Drosophila suzukii = assay: Impact of MB on D. suzukii control: pre-infested blueberries dipped in MB emulsion; format: in vivo; conditions: 1% MB, berries pre-infested 4 days, dipped 2 h, 10 days incubation at room temperature
# Description: Assessment was conducted after 10 days incubation at room temperature.
# Laboratory bioassay: Bioassays were conducted in USDA Beltsville laboratory at 25° C., 60% RH, under a 16L:8D photoperiod with ˜1700 lux light illuminance. A fume hood was maintained at same conditions with face velocity at 129 FPM. The plastic cups (32 oz, diameter 4.5 inches, deep 5 inches, or 16 oz, diameter 4.5 inches, deep 2.5 inches) were purchased from papermart.com (CA). The cover was cut into a 80 mm diameter hole and glued with an 85 mm diameter Nylon screen mesh (81×81 per inch) mesh size, BioQuip, CA). The polystyrene vials (height 95 mm, diameter 28.5 mm) and plugs were obtained from Fisher Scientific (Pittsburg, Pa.). The plastic cage (30×30×30 cm) was purchased from BugDorm (Rancho Dominguez, Calif.). Glass vial (20 mL), glass spray bottle (Amber glass with spray top, 30 mL), Petri dish (9 cm diameter), and Whatman filter paper (90 mm diameter) were obtained from VWR (Atlanta, Ga.). […]
# Impact of MB on D. suzukii control: To investigate the acute toxicity of MB against D. suzukii, 100 blueberries were placed in a plastic cage (30×30×30 cm) and infested by 100 mixed sex adult D. suzukii for 4 days. […] Present of adults were then subsequently assessed and development of larvae and pupae was further inspected by dissection of the berries. […]
# [1] = by ingestion and inhalation; cited from earlier work
# D. suzukii = assay: Oviposition deterrent / adult toxicity of MB and other VOCs on pre-treated blueberries; format: in vivo, Drosophila suzukii; conditions: for Activity against adult D. suzukii: 2 days exposure to pre-treated blueberries; for Toxicity / mortality against adult D. suzukii: blueberries soaked 2 h, 48 h (2 days) exposure; for Adults emerged from pre-treated berries / Pupae developed from pre-treated berries compared with blank control: further 10 days incubation at room temperature
# Description: Mortality assessed after 48 hrs exposure to pre-treated blueberries (60 berries/treatment, 1% solution soaking for 2 hr) as described below.
# Numbers assessed after 10 days incubation at room temperature as described below.
# Mortality assessed after 48 hrs exposure to pre-treated blueberries (60 berries/treatment, soaking for 2 hr) as described below.
# Numbers assessed after 10 days incubation at room temperature.
# Laboratory bioassay: Bioassays were conducted in USDA Beltsville laboratory at 25° C., 60% RH, under a 16L:8D photoperiod with ˜1700 lux light illuminance. A fume hood was maintained at same conditions with face velocity at 129 FPM. The plastic cups (32 oz, diameter 4.5 inches, deep 5 inches, or 16 oz, diameter 4.5 inches, deep 2.5 inches) were purchased from papermart.com (CA). The cover was cut into a 80 mm diameter hole and glued with an 85 mm diameter Nylon screen mesh (81×81 per inch) mesh size, BioQuip, CA). The polystyrene vials (height 95 mm, diameter 28.5 mm) and plugs were obtained from Fisher Scientific (Pittsburg, Pa.). The plastic cage (30×30×30 cm) was purchased from BugDorm (Rancho Dominguez, Calif.). Glass vial (20 mL), glass spray bottle (Amber glass with spray top, 30 mL), Petri dish (9 cm diameter), and Whatman filter paper (90 mm diameter) were obtained from VWR (Atlanta, Ga.). Deionized water (DI) containing 1% emulsifier (v/v), Tween 20 and Tween 80, at 1.1 ratio was used to make different VOCs water solutions and also used as blank control.
# Evaluation of MB and other VOCs as oviposition deterrent against D. suzukii: To examine the oviposition deterrent property of MB and other essential oils against D. suzukii, 10 blueberries were separately dipped in 100 mL MB or other essential oil aqueous emulsions at 1% concentration for 2 h. Another 10 blueberries were dipped in 100 mL DI water for 2 h as control. The blueberries were separately placed on different Petri dishes and allowed to air dry for 2 h. After a Petri dish containing 10 treated blueberries was put into a plastic cup (32 oz), 10 mixed sex adults D. suzukii were subsequently introduced into each cup. Mortality of the D. suzukii was examined after 48 h. After removing all insects, the blueberries were maintained at room temperature for another 10 days. Present of adults were subsequently assessed and development of larvae and pupae was further inspected by dissection of the berries.
# M. sexta eggs = format: in vivo
# Description: (§2) Ovicidal toxicity of MB and commercial pesticides: The aqueous solutions of MB with designated concentrations and commercially available pesticides with different concentrations of active ingredient (AI) were separately stored in glass spray bottles. The eggs (10 for H. halys and M. sexta, 100 for P. xylostella) were laid on filter papers in Petri dishes. Different aqueous solutions were sprayed on the surfaces of different eggs three times (˜0.5 mL) to completely cover the treatment areas. Then Petri dishes were covered with lids and maintained in a fume hood for 10 days. The Petri dishes were then inspected for presence of nymph/larvae development or numbers of unhatched eggs.
# as §1
# P. xylostella eggs = format: in vivo
# Description: as §2, §1
# H. halys eggs = format: in vivo
# Description: as §2, §1
smiles,measurement,setting,value
"COC(=O)c1ccccc1 [MB, methyl benzoate]",LC50 (95% CL),H. halys nymphs; 1st instar nymphs,1.03 (0.93-1.10) μL/via1
same,LC50 (95% CL),H. halys nymphs; 2nd instar nymphs,1.01 (0.86-1.12) μL/via1
same,LC50 (95% CL),H. halys nymphs; 3rd instar nymphs,1.23 (1.12-1.33) μL/via1
same,LC50 (95% CL),H. halys nymphs; 4th instar nymphs,2.39 (2.19-2.60) μL/via1
same,LC50 (95% CL),H. halys nymphs; 5th instar nymphs,1.77 (1.60-1.93) μL/via1
same,Larvae/pupae development and adult emergence from pre-infested blueberries,Drosophila suzukii,no larvae and pupae developed or adult flies emerged
same,Mortality of D. suzukii in pre-infested blueberries,Drosophila suzukii,complete mortality
same,Human toxicity,[1],low to moderate human toxicity
same,Activity against adult D. suzukii,D. suzukii; 0.1% MB,no significant activity
same,Activity against adult D. suzukii,D. suzukii; 0.5% MB,Little activity
same,Toxicity / mortality against adult D. suzukii,D. suzukii; 1% solution,complete mortality; also recorded: potent activity
same,Toxicity / mortality against adult D. suzukii,"D. suzukii; 1% solution, listed as methyl benzoate",complete mortality
same,Adults emerged from pre-treated berries,D. suzukii; 1% solution,no adults emerged
same,Pupae developed from pre-treated berries compared with blank control,D. suzukii; 1% solution,significantly fewer pupae developed
same,Activity against adult D. suzukii,D. suzukii; 5% MB,potent activity
same,Adults emerged from pre-treated berries,D. suzukii; 5% MB,no adults emerged
same,Pupae developed from pre-treated berries compared with blank control,D. suzukii; 5% MB,significantly fewer pupae developed
same,"Ovicidal toxicity compared with commercial pesticides, in words","M. sexta eggs; M. sexta eggs, MB 0.0637 mg/cm^2 vs bifenthrin & ζ-cypermethrin 0.0239 and essential oil product 0.3979 mg/cm^2",significantly better
same,Hatchability (%) (mean ± SE),"M. sexta eggs; M. sexta eggs, MB 0.025%, AI dose 0.0016 mg/cm^2, 10 days exposure",67 ± 8.8^c %
same,Hatchability (%) (mean ± SE),"M. sexta eggs; M. sexta eggs, MB 0.05%, AI dose 0.0032 mg/cm^2, 10 days exposure",63 ± 8.8^c %
same,Hatchability (%) (mean ± SE),"M. sexta eggs; M. sexta eggs, MB 0.1%, AI dose 0.0064 mg/cm^2, 10 days exposure",50 ± 17.3^c %
same,Hatchability (%) (mean ± SE),"M. sexta eggs; M. sexta eggs, MB 0.25, AI dose 0.0159 mg/cm^2, 10 days exposure",40 ± 15.3^c %
same,Hatchability (%) (mean ± SE),"M. sexta eggs; M. sexta eggs, MB 0.5%, AI dose 0.0318 mg/cm^2, 10 days exposure",20 ± 10.0^abc %
same,Hatchability (%) (mean ± SE),"M. sexta eggs; M. sexta eggs, MB 1%, AI dose 0.0637 mg/cm^2, 10 days exposure",3 ± 3.35^ab %
same,Hatchability (%) (mean ± SE),"M. sexta eggs; M. sexta eggs, MB 2%, AI dose 0.1273 mg/cm^2, 10 days exposure",0 ± 0.0^a %
same,Hatchability (%) (mean ± SE),"M. sexta eggs; M. sexta eggs, MB 4%, AI dose 0.2546 mg/cm^2, 10 days exposure",0 ± 0.0^a %
same,LC50 (95% CL),"M. sexta eggs; M. sexta eggs, spray, 10 days",0.015 mg/cm^2
same,LC95 (95% CL),"M. sexta eggs; M. sexta eggs, spray, 10 days",0.060 mg/cm^2
same,Toxicity against M. sexta eggs in words,M. sexta eggs; MB at 0.0637 mg/cm^2 dose,potent toxic agent
same,Dose needed to reach 100% egg mortality,P. xylostella eggs; P. xylostella eggs,0.0064 mg/cm^2
same,Hatchability (%) (mean ± SE),"P. xylostella eggs; P. xylostella eggs, MB 0.025%, AI dose 0.0016 mg/cm^2, 10 days exposure",38 ± 5.5^c %
same,Hatchability (%) (mean ± SE),"P. xylostella eggs; P. xylostella eggs, MB 0.05%, AI dose 0.0032 mg/cm^2, 10 days exposure",13 ± 5.0^ab %
same,Hatchability (%) (mean ± SE),"P. xylostella eggs; P. xylostella eggs, MB 0.1%, AI dose 0.0064 mg/cm^2, 10 days exposure",0 ± 0.3^a %
same,Hatchability (%) (mean ± SE),"P. xylostella eggs; P. xylostella eggs, MB 0.25, AI dose 0.0159 mg/cm^2, 10 days exposure",1 ± 0.0^a %
same,Hatchability (%) (mean ± SE),"P. xylostella eggs; P. xylostella eggs, MB 0.5%, AI dose 0.0318 mg/cm^2, 10 days exposure",0 ± 0.0^a %
same,Hatchability (%) (mean ± SE),"P. xylostella eggs; P. xylostella eggs, MB 1%, AI dose 0.0637 mg/cm^2, 10 days exposure",0 ± 0.0^a %
same,Ovicidal activity in words,"P. xylostella eggs; P. xylostella eggs, MB at as low as 0.0032 mg/cm^2 dose",potent ovicidal activity
same,Dose for 100% egg mortality of P. xylostella: times less than H. halys eggs needed,P. xylostella eggs; P. xylostella vs H. halys eggs,10 times
same,Dose for 100% egg mortality of P. xylostella: times less than M. sexta eggs needed,P. xylostella eggs; P. xylostella vs M. sexta eggs,20 times
same,LC50 (95% CL),P. xylostella eggs; in vivo,0.001 mg/cm^2
same,LC95 (95% CL),P. xylostella eggs; in vivo,0.005 mg/cm^2
same,Dosage (active ingredient) needed to reach 100% egg mortality,H. halys eggs; H. halys eggs,0.0637 mg/cm^2
same,Hatchability (%) (mean ± SE),"H. halys eggs; H. halys eggs, MB 0.025%, AI dose 0.0016 mg/cm^2, 10 days exposure",67 ± 8.8^d %
same,Hatchability (%) (mean ± SE),"H. halys eggs; H. halys eggs, MB 0.05%, AI dose 0.0032 mg/cm^2, 10 days exposure",63 ± 17.6^cd %
same,Hatchability (%) (mean ± SE),"H. halys eggs; H. halys eggs, MB 0.1%, AI dose 0.0064 mg/cm^2, 10 days exposure",60 ± 10.0^cd %
same,Hatchability (%) (mean ± SE),"H. halys eggs; H. halys eggs, MB 0.25, AI dose 0.0159 mg/cm^2, 10 days exposure",43 ± 6.7^abcd %
same,Hatchability (%) (mean ± SE),"H. halys eggs; H. halys eggs, MB 1%, AI dose 0.0637 mg/cm^2, 10 days exposure",0 ± 0.0^a %
same,Hatchability (%) (mean ± SE),"H. halys eggs; H. halys eggs, MB 2%, AI dose 0.1273 mg/cm^2, 10 days exposure",0 ± 0.0^a %
same,Hatchability (%) (mean ± SE),"H. halys eggs; H. halys eggs, MB 4%, AI dose 0.2546 mg/cm^2, 10 days exposure",0 ± 0.0^a %
same,"Ovicidal potency compared with commercial pesticides, in words","H. halys eggs; H. halys eggs, MB at 0.0318 mg/cm^2 vs deltamethrin 0.0019, ζ-cypermethrin 0.0223, carbaryl 0.0080, β-cyfluthrin 0.1592, sulfur/pyrethrin 0.6525, organic essential oil product 0.3979 mg/cm^2",as potent as
same,LC95 (95% CL),"H. halys eggs; H. halys eggs, spray, 10 days",0.048 mg/cm^2
same,Hatchability (%) (mean ± SE),H. halys eggs; in vivo,17 ± 12.0^ab %
same,LC50 (95% CL),H. halys eggs; in vivo,0.020 mg/cm^2
same,"Times more toxic than organic commercial product (2-phenethyl propionate, clover oil, rosemary oil, thyme oil)",H. halys eggs; in vivo,12 times
same,Times more toxic than sulfur & pyrethrin mixture,H. halys eggs; in vivo,20 times
same,Times more toxic than the conventional pyrethroid (β-cyfluthrin),H. halys eggs; in vivo,5 times
